From patent US20130331314A1, “PHARMACEUTICAL COMPOSITION FOR TREATING HCV INFECTIONS” (Hoffmann-La Roche Inc., priority 2010, published 2013)

Test: Biopharmaceutical Classification System class
Format: physicochemical
Details: solubility and permeability limited oral absorption

CC(C)(C)OC(=O)N[C@H]1CCCCC/C=C\[C@@H]2C[C@@]2(C(=O)NS(=O)(=O)C2CC2)NC(=O)[C@@H]2C[C@@H](OC(=O)N3Cc4cccc(F)c4C3)CN2C1=O [Compound I, 4-fluoro-1,3-dihydro-isoindole-2-carboxylic acid (Z)-(1S,4R,6S,14S, 18R)-14-tert-butoxycarbonylamino-4-cyclopropanesulfonylaminocarbonyl-2,15-dioxo-3,16-diaza-tricyclo[14.3.0.0^4,6]nonadec-7-en-18-yl ester]
Biopharmaceutical Classification System class: Class 4
